Assay results from patent publication US6664086B2, “cDNA, genomic, and predicted protein sequences of learning-induced kinases” (priority 1998, dated 2003).
“Also recorded” adds a separate entry of the source. Starred links: 1 amine or outer side, 2 acyl side, 3 side chain; linkers in the order of their positions; H or OH if unused. Positions of bridges follow the written chain, without caps; N, C: chain ends. Non-standard residues stand in square brackets, D forms with d. Residues, ends and D or L forms follow the SMILES beside them. Chains are numbered I, II in the order given. Actinocin(9to1) = Cc1c2oc3c(C)ccc(C(=O)[*:1])c3nc-2c(C(=O)[*:2])c(N)c1=O; NMeV = CN[C@H](C(=O)O)C(C)C; Sar = CNCC(=O)O

Assays:
[1] = test system: eyeblink/nictitating membrane conditioned responses (CRs); infusion into dorsal anterior IN; assay: Eyeblink conditioning after drug infusion into the interpositus nucleus (IN); format: in vivo, New Zealand White male rabbits (Oryctolagus cuniculus)
Protocol: Rabbits underwent eyeblink training 30 min. after infusion of 1 ng of actinomycin D (ActD) or artificial cerebrospinal fluid (ACSF) into the dorsal anterior IN ipsilateral to the trained eye. Rabbits were trained with 10 paired tone-air trials per day to insure that ActD could act during learning (see Methods). […] Most animals in the experimental group reached criterion after 5 days of additional training without drug infusion.
New Zealand White male rabbits (Oryctolagus cuniculus), weighing between 2 and 3 kg were individually housed at the University of Southern California Hedco Neuroscience Building vivariunm with a 12-hr light and dark cycle. The experiment was conducted during the light phase of the cycle. Rabbits had ad lib access to food and water.
(§1) Stainless steel guide cannulas (25 ga) were implanted in the head of the animals with the tip fixed at 1.5 to 2.0 mm dorsal to the IN ipsilateral to the eye to be trained (left) (stereotaxic coordinates from lambda: 0.8 mm anterior, 5.2 mm lateral, and 14.0 mm ventral). Each guide cannula was filled with an inner stainless steel stylet designed to keep the guide cannula patent. Animals were given 5 days to recover from surgery. At infusion the stylet was removed and an inner cannula (31 ga) was inserted to the target locus. Delivery of fluids through the inner cannula was accomplished by a 10 μl Hamilton syringe driven by a syringe pump. Fluids were delivered to the target area at a rate of 0.38 μl per min for 2.6 min. For the experimental group, 1 ng of ActD (in 1 μl of vehicle) was infused daily 30 min prior to the start of each training session for 5 days (n=7). […] The animals were given 2 days rest and then trained for 5 more days without drug infusion. At training day 11, the experimental group was treated with 1 μg muscimol which is known to reversibly inactivate the IN (Krupa and Thompson, 1997). For the control group, 1 μl of ACSF (vehicle) was infused into the IN for 5 days (n=5). At day 6, control animals were infused with 1 ng of ActD 30 min prior to training. On training day 7, 1 μg of muscimol was infused.
For the infusion experiments, all animals were subjected to eye-blink conditioning under the delay paradigm. The rabbits were allowed one day (1 hour) of habituation to the restrainer and the behavioral recording chamber. On the following day, paired tone-airpuff training began. For each day, the training session began 30 min post drug infusion and we gave only 10 trials/day (instead of the standard 100 trials per day, see below) in order to maximize the possibility that ActD was acting on the learning process before the long term memory had been well established. The tone CS was a 350 ms, 1000 Hz., 85 dB tone and the airpuff US was a 100 ms puff of air (3 psi at the source) delivered to the rabbit's cornea, the CS and US coterminating. The mean intertrial interval (ITI) was 60±10 sec. Nictitating membrane (NNI) conditioned responses (CRs) were measured using a minitorque potentiometer attached to a small loop of monofilament nylon thread on the NM of the rabbit's left, eye. Output of the potentiometer was digitized and recorded by computer. A conditioned response was defined as any NM extension response greater than 0.5 mm that occurred after tone onset but before airpuff onset. The intra- and intertrial timing, stimulus presentations, data collection and analysis were performed by a PC with a program written in Forth and machine language (Lavond and Steinmetz, 1989b).

IN tissue = assay: Pilot dose studies of ActD infusion into the IN (tissue damage); format: in vivo, New Zealand White male rabbits (Oryctolagus cuniculus); details: e.g. 5 ng, infused into IN
Source text: as §1, with “For the experimental group, 1 ng of ActD (in 1 μl of vehicle) was infused daily 30 min prior to the start of each training session for 5 days (n=7).” left out

eyeblink conditioning = details: infusion into the IN, rabbit (Bracha and Bloedel, 1996); cited from earlier work

Structure (SMILES): Cc1c2oc3c(C)ccc(C(=O)N[C@@H]4C(=O)N[C@H](C(C)C)C(=O)N5CCC[C@H]5C(=O)N(C)CC(=O)N(C)[C@@H](C(C)C)C(=O)O[C@@H]4C)c3nc-2c(C(=O)N[C@@H]2C(=O)N[C@H](C(C)C)C(=O)N3CCC[C@H]3C(=O)N(C)CC(=O)N(C)[C@@H](C(C)C)C(=O)O[C@@H]2C)c(N)c1=O [ActD, actinomycin D] (I: T[dV]P[Sar][NMeV] / II: T[dV]P[Sar][NMeV]; ester I:1-I:C, II:1-II:C; linker I:N-II:N via Actinocin(9to1))
- Acquisition of conditioned responses (CRs) during 5 days of training ([1]; 1 ng infused into IN daily 30 min before training, 5 days, 10 paired CS-US trials per day, n=7, vs ACSF): low levels of CRs; also recorded: completely prevents learning; also recorded: inhibited eyeblink conditioning
- Expression of already acquired CRs ([1]; 1 ng infused into IN on day 6 in control animals conditioned under ACSF (n=5)): did not prevent expression of acquired CRs; also recorded: no effect on the performance of CRs
- CRs on training without drug after ActD treatment (reversibility) ([1]; experimental group, 2 days rest, then training days 6-10 without drug infusion): gradual increase of CRs
- Tissue damage at higher doses (IN tissue): caused permanent damage to the tissue

Structure (SMILES): COc1ccc(C[C@H]2NC[C@H](O)[C@H]2OC(C)=O)cc1 [anisomycin]
- Effect on eyeblink conditioning (eyeblink conditioning): interfered with conditioning

Structure (SMILES): NCc1cc(=O)[nH]o1 [muscimol]
- Expression of CRs, experimental group day 11 ([1]; 1 μg infused into IN at day 11, experimental group after retraining): completely abolished the expression of CRs
- Expression of CRs, control group day 7 ([1]; 1 μg infused into IN on day 7, conditioned control animals): completely abolished the CRs
